Test results taken from ChEMBL document CHEMBL5465560, “Selectivity Literature for EUbOPEN Chemogenomic Library” (2024).

What was measured:
[1] = target: Tyrosine-protein kinase ABL1 (Homo sapiens, UniProt P00519); assay: Selectivity interaction (Kinase panel (KiNativ target engagement assay in Jurkat cells)) EUB0001635a ABL1; assay type: cell-based; settings: Selectivity number of off-targets 0.0, Selectivity number of targets 233.0, Source Knowledge https://www.sciencedirect.com/science/article/pii/S2451945619300674?via%3Dihub, at 1 µM
Sequence of Tyrosine-protein kinase ABL1 (P00519 whole entry): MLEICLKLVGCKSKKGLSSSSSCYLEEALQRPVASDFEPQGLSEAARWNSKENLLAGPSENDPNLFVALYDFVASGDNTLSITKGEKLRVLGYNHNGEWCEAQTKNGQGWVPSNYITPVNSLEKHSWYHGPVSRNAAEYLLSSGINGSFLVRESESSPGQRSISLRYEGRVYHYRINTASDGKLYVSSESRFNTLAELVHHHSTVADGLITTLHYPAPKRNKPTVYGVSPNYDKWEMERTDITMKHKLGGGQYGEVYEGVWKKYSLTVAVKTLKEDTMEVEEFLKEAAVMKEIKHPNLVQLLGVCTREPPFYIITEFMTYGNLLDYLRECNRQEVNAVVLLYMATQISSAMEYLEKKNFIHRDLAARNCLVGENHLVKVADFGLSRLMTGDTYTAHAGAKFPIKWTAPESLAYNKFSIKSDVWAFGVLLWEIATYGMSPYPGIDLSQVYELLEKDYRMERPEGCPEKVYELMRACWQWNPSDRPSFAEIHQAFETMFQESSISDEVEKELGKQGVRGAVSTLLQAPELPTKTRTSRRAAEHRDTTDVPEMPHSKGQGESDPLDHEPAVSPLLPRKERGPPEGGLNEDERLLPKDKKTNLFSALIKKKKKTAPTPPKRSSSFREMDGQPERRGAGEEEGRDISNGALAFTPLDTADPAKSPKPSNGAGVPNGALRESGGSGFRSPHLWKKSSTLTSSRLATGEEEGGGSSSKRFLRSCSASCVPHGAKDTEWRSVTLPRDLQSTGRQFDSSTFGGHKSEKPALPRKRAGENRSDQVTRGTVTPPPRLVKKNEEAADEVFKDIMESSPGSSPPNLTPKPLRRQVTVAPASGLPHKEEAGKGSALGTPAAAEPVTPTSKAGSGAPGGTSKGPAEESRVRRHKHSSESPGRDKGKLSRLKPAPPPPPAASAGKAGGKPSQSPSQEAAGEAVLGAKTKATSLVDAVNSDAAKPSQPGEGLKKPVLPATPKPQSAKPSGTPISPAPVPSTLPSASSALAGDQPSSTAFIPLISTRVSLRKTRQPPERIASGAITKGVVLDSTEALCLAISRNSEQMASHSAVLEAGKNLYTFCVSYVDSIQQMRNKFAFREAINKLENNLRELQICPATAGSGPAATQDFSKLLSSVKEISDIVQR

[2] = target: T1, Serine/threonine-protein kinase Nek1 (Homo sapiens) (UniProt Q96PY6); settings: at 10 µM
T1 sequence (whole entry): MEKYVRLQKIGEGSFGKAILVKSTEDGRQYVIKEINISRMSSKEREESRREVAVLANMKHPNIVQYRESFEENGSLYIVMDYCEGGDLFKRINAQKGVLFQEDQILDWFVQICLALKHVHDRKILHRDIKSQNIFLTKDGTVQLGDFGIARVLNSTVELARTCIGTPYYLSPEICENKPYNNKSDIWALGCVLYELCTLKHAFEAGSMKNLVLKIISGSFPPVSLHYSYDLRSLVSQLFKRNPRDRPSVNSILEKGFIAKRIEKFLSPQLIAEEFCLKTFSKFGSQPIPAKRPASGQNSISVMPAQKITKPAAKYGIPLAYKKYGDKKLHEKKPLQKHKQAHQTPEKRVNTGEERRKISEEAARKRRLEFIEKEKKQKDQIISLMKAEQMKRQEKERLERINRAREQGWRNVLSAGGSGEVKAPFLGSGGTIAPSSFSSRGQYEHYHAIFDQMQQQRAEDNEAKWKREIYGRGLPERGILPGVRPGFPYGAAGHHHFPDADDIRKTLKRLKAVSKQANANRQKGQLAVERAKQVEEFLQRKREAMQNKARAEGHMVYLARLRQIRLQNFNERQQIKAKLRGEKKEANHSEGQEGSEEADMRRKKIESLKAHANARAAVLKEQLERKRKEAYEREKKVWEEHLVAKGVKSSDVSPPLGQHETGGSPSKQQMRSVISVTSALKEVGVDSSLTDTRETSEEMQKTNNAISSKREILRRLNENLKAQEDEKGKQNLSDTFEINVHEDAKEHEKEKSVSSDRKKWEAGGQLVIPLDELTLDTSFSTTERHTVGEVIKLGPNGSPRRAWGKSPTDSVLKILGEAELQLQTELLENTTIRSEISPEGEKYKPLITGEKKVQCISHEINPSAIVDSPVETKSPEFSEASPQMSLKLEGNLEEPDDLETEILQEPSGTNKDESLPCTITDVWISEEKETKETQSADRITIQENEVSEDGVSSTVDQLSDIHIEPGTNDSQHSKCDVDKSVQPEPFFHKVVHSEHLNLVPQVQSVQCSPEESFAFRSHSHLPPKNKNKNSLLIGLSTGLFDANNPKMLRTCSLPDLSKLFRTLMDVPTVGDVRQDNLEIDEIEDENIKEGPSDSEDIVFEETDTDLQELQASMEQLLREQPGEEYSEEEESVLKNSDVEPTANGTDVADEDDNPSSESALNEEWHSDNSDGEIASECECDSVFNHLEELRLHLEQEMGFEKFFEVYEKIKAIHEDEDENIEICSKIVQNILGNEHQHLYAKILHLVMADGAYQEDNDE

[3] = target: T2, Mitogen-activated protein kinase kinase kinase kinase 2 (Homo sapiens) (UniProt Q12851); assay: Selectivity interaction (ActivX KiNativ screen (kinase selectivity in THP-1 cell lysates)) EUB0000639a MAP4K2; assay type: subcellular; settings: lysate, at 0.04 µM
T2 sequence (whole entry): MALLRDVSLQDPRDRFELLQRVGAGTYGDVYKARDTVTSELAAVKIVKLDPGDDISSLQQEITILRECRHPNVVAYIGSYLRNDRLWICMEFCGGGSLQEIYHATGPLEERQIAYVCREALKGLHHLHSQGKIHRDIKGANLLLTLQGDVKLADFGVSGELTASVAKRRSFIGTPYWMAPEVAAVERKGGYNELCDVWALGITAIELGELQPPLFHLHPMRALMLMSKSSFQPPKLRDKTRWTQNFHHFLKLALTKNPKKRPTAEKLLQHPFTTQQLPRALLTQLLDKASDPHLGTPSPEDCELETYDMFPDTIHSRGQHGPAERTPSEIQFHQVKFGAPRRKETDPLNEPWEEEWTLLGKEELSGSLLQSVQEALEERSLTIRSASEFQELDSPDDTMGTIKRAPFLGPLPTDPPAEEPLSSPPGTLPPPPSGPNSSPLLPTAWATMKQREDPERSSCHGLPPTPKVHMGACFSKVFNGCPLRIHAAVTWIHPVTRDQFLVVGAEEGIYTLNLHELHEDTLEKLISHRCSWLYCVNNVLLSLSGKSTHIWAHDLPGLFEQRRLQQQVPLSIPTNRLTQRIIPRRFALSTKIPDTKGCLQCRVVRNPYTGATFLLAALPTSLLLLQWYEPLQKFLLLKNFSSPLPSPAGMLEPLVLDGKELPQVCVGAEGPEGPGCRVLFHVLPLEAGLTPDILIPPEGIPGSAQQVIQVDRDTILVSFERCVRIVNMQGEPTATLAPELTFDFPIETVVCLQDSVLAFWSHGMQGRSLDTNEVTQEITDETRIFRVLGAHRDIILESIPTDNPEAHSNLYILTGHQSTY

Misshapen-like kinase 1 = Misshapen-like kinase 1 (Homo sapiens, UniProt Q8N4C8); assay: Selectivity interaction (Ambit KINOMEscan and KiNATiv profiling in Jurkat cells) EUB0000090b MINK1; assay type: cell-based; settings: at 1 µM
[4] = test system: Epidermal growth factor receptor (Homo sapiens), P00533 [L858R]; assay: (§1) Selectivity interaction (KinomeScan (DiscoverX)) EUB0000618a EGFR; settings: at 10 µM
[5] = test system: Epidermal growth factor receptor (Homo sapiens), P00533 [UNDEFINED MUTATION]; assay: as §1; settings: at 10 µM
Sequence of Epidermal growth factor receptor (Homo sapiens), P00533 [UNDEFINED MUTATION] (P00533 whole entry, looked up, stated change not applied): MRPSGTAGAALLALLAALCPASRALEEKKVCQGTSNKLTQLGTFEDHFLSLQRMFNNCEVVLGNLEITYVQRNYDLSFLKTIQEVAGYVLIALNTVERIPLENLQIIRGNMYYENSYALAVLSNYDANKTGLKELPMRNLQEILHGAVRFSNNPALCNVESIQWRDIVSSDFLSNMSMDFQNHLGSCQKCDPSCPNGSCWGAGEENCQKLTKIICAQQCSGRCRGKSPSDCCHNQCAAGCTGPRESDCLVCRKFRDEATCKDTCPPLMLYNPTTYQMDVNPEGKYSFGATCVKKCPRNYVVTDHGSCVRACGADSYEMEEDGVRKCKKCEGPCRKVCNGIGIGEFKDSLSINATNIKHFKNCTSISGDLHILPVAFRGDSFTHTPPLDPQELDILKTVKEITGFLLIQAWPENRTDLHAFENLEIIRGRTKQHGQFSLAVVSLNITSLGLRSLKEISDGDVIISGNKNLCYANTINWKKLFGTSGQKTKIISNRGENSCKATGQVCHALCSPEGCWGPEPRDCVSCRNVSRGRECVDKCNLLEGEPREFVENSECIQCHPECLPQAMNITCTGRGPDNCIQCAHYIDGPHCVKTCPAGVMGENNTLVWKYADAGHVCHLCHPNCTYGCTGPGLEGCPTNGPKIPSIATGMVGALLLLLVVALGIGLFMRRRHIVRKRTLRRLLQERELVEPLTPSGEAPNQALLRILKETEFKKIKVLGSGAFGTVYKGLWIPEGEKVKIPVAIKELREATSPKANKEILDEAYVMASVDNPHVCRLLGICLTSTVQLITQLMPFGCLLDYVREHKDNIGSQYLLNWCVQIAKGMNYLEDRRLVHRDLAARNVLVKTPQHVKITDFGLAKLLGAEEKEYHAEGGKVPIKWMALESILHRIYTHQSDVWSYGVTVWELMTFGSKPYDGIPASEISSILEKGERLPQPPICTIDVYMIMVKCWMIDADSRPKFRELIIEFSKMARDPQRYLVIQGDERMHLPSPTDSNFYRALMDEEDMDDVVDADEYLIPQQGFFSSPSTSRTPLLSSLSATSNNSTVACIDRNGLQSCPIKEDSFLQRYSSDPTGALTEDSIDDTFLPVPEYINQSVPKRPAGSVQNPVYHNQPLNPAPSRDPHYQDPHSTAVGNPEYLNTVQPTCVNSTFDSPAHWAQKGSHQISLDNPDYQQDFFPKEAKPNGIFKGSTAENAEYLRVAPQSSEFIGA

[6] = test system: Epidermal growth factor receptor (Homo sapiens), P00533 [L858R,T790M]; assay: as §1; settings: at 10 µM
Sequence of Epidermal growth factor receptor (Homo sapiens), P00533 [L858R,T790M] (P00533 whole entry T790M/L858R, looked up): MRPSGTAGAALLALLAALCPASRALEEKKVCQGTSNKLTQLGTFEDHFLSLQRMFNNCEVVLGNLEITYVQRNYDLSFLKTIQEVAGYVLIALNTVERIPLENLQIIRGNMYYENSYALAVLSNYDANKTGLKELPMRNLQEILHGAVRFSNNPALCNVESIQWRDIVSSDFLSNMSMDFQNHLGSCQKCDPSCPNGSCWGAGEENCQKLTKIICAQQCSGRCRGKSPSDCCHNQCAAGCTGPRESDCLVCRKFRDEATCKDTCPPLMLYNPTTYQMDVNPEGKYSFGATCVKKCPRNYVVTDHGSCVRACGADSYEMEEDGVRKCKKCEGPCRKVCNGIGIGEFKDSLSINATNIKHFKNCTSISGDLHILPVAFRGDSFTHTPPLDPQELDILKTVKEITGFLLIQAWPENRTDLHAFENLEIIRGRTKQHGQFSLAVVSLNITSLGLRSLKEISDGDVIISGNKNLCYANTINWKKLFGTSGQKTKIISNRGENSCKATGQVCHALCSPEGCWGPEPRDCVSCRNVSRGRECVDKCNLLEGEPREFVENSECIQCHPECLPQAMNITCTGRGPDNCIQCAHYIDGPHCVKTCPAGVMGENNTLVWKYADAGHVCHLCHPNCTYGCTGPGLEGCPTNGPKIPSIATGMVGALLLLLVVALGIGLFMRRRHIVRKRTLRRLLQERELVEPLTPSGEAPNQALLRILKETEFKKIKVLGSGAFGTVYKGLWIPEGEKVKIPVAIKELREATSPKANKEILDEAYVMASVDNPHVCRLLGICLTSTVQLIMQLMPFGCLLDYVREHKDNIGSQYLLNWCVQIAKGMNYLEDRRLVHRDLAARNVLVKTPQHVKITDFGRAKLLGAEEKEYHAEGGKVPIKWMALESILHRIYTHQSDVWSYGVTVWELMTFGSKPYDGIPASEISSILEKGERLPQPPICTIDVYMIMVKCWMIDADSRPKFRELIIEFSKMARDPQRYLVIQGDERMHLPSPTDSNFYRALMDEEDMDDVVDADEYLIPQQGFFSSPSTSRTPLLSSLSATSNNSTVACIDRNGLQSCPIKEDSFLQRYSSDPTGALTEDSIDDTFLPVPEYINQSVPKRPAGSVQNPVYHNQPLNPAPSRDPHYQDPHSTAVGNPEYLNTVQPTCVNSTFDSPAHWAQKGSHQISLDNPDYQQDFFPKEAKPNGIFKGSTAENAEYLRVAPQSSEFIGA

[7] = test system: Epidermal growth factor receptor (Homo sapiens), P00533 [T790M]; assay: as §1; settings: at 10 µM
[8] = test system: Epidermal growth factor receptor (Homo sapiens), P00533 [G719C]; assay: as §1; settings: at 10 µM
Focal adhesion kinase 1 = Focal adhesion kinase 1 (Homo sapiens, UniProt Q05397); assay: Selectivity interaction (Upstate Kinase Profiler service (Millipore)) EUB0000056c PTK2; settings: at 1 µM
Sequence of Focal adhesion kinase 1 (Q05397 2-1052 limits assumed): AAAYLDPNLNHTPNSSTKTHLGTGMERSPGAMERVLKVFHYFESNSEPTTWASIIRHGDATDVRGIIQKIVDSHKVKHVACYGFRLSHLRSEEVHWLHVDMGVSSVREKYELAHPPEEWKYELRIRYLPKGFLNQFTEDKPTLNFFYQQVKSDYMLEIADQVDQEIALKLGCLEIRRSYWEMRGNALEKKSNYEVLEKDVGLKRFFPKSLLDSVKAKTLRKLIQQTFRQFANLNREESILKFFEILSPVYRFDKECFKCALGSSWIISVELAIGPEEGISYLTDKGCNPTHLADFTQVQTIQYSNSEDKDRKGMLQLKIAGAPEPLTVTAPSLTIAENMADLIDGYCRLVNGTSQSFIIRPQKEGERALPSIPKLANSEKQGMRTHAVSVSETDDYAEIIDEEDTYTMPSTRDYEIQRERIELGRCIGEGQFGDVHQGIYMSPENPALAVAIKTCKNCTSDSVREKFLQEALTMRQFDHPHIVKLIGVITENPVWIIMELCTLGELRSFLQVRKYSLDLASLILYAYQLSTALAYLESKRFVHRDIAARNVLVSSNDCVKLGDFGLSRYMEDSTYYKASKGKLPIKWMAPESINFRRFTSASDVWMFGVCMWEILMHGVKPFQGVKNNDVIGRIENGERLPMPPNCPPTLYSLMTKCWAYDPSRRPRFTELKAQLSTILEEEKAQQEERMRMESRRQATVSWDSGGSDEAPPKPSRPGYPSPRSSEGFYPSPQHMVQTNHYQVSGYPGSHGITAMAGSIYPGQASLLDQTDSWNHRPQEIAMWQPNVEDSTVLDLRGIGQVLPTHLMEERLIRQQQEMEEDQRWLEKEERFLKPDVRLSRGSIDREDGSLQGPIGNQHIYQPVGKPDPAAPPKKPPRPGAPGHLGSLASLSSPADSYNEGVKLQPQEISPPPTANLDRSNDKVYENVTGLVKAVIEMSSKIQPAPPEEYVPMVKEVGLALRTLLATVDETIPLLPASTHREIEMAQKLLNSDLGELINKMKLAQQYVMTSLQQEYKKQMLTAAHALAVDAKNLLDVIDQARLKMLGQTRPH

[9] = target: Vascular endothelial growth factor receptor 3 (Homo sapiens, UniProt P35916); assay: Selectivity interaction (Upstate Kinase Profiler service (Millipore)) EUB0000056c FLT4; settings: at 1 µM

Work on `C=CC(=O)Nc1ccc(C(=O)Nc2[nH]nc3c2CN(C(=O)N[C@H](CN(C)C)c2ccccc2)C3(C)C)cc1` yielded a % of engagement [1] of -12.6%.
With `CCN(CC)CCCCNc1ncc2cc(-c3cc(OC)cc(OC)c3)c(NC(=O)NC(C)(C)C)nc2n1` the % of control [2] was 100%.
In the case of `CC[C@@H]1[C@H](F)C(=O)N[C@@H]1COc1nccc2cc(C(N)=O)c(OC)cc12` [ZIMLOVISERTIB], the % of inhibition [3] is reported as -1%.
Compound `CN(C)C/C=C/C(=O)Nc1ccc(C(=O)N2CCCC(Nc3ncc(Cl)c(-c4c[nH]c5ccccc45)n3)C2)cc1` (stereo unspecified) has a % of control (Misshapen-like kinase 1) of 89%.
With `O[C@H]1CC[C@H](Nc2ncc3nc(Nc4c(F)cc(F)cc4F)n([C@H]4CCOC4)c3n2)CC1` the % of control [4] was 17%, the % of control [5] was 7.4% and the % of control [6] was 85%. It also gave a % of control [7] of 72% and a % of control [8] of 20%.
In the case of `Cc1ccc(-c2ccc3c(ccc4sc5c(c43)NC[C@@H](C)NC5=O)n2)cn1`, the % of inhibition (Focal adhesion kinase 1) is reported as -2% and the % of inhibition [9] is reported as 40%.
